Eleven molecules from patent US7625917B2, “Thiolesters and uses thereof” (priority 1998, dated 2009) can be followed below.

SMILES strings stand for the structures. Where two headings read alike, the source gives them in different places.

For data set [1], the target named is T1, recombinant HIV-1 NCp7 protein (Human immunodeficiency virus type 1 group M subtype B, UniProt P03347).
T1 construct: recombinant HIV-1 NCp7 protein
As to the kind of experiment: Trp37 zinc finger fluorescence (zinc ejection) assay. It counts as biochemical. The method, then:
Zinc finger reactivity was measured using a Zn specific fluorochrome, TSQ, N-(6-methoxy-8-quinolyl)-p-toluenesulfonamide, assay or a Trp37 zinc finger fluorescence assay. Fluorescent measurements of the Trp37 residue in the C-terminal finger of recombinant HIV-1 NCp7 protein were performed as described by Rice (1995) Science 270:1194-1197; Rice (1997) Antimicrob. Agents Chemother. 41:419-426. Measurement of Zn ejection from both fingers was measured using the Zn-selective fluorchrome probe TSQ (Molecular Probes, Eugene Oreg.) as described by Rice (1996) J. Med. Chem 39:3606-3616. […] Briefly, 50 nM NCp7 was treated with test compounds for 1 hour at RT in […] buffer containing 10% glycerol and 50 mM Tris-HCl (pH 7.5). Labeled oligomer (0.1 picomole, end labeled [^32P] was added in an equal volume of buffer containing 10% glycerol, 50 mM Tris-HCl (pH 7.5), 400 mM KCl and 40 mM MgCl2. The reaction was continued for 15 min at room temperature, and a total of […] (or ¼ of the total reaction volume) was separated on nondenaturing 4.5% polyacrylamide gels in 0.5× Tris-Borate electrophoresis buffer. NCp7-oligomer complexes were visualized by autoradiography.
Changes in the intrinsic fluorescence of aromatic protein moieties are commonly used to monitor a reaction which involves a change in protein conformation. In the present invention, fluorescence can be used to monitor the loss of metal ion from a zinc finger, e.g., the loss of zinc from a CCHC retroviral zinc finger protein, after contact with a thiolester of the invention. The intrinsic fluorescence of Trp37 in the second zinc finger of HIV-1 NC protein has been used to monitor nucleic acid binding and conformation of the zinc finger complex (see, Summers (1992) supra).
Zinc ejection is measured by the ability of compounds to chemically attack the cysteines in purified NCp7 protein resulting in a loss of fluorescence due to the. movement of the tryptophan 37 residue […] position on the protein. Zinc ejection is measured and expressed as either percent decrease in total fluorescence or decrease in relative fluorescence units per min during a 30 min assay (RFU/min). A thiolester is considered within the scope of the invention if any amount of zinc ejection is detected.

Another data set relates to HIV-1RF. As to the kind of experiment: XTT cytoprotection assay (antiviral activity). It counts as cell-based. The source says:
One exemplary means to determine antiviral activity is with CEM-SS cells and virus (e.g., HIV-1RF) (MOI=0.01) using the XTT (2,3-bis[2-methoxy-4-nitro-5-sulfophenyl]-5-[(phenylamino)carbonyl]-2H-tetrazolium hydroxide) cytoprotection assay, as described by Rice (1993) PNAS 90:9721-9724, and Rice (1997) Antimicrob. Agents Chemother. 41:419-426. Briefly, cells are infected with HIV-1 RF (or other virus to be tested) in the presence of various dilutions of test compounds (thiolesters and controls). The cultures are incubated for seven days. During this time control cultures without protective compounds (i.e., compounds with anti-viral activity) replicate virus, induce syncytia, and result in about 90% cell death. The cell death is measured by XTT dye reduction. XTT is a soluble tetrazolium dye that measures mitochondrial energy output, similar to MTT. Positive controls using dextran sulfate (an attachment inhibitor) or 3′-Azido-2′-3′-dideoxythymidine, AZT (a reverse transcriptase inhibitor) are added to each assay. Individual assays are done in duplicate using a sister plate method.
Effective antiviral concentrations providing 50% cytoprotection (EC50), and cellular growth inhibitory concentrations causing 50% cytotoxicity (IC50) are calculated.

The subject of the next data set is CEM-SS cells. As to the kind of experiment: cells. Conditions: for cellular toxicity (in words): high test dose of 316 μM. It counts as cell-based. On the procedure: Agents Chemother. […] Briefly, cells are infected with HIV-1 RF (or other virus to be tested) in the presence of various dilutions of test compounds (thiolesters and controls). The cultures are incubated for seven days. […] The cell death is measured by XTT dye reduction. XTT is a soluble tetrazolium dye that measures mitochondrial energy output, similar to MTT. Positive controls using dextran sulfate (an attachment inhibitor) or 3′-Azido-2′-3′-dideoxythymidine, AZT (a reverse transcriptase inhibitor) are added to each assay. Individual assays are done in duplicate using a sister plate method.

Setting [2] is: Table 3, average decrease in relative fluorescence.
The mark [3] stands for this setting: read-out: EC50 (concentration inhibiting 50% virus replication).
Where [4] appears, read: Table 3, 50% cytotoxicity, read-out: IC50.

As for `NS(=O)(=O)c1ccc(CNC(=O)c2ccccc2SSc2ccccc2C(=O)NCc2ccc(S(N)(=O)=O)cc2)cc1` [Compound 23 D, N,N′-(2,2′-dithiodibenzoyl)-bis-4-(aminomethyl)benzene-sulfonanide], in data set [1], the “zinc finger reactivity / zinc ejection rate” value worked out at 3.3 RFU/min. Besides, in the data set on HIV-1RF (Table 2, read-out: EC50), the EC50 was 0.33 µM. The IC50 in the data set with CEM-SS cells (read-out: toxicity / IC50) is 19.4 µM.

On to `NS(=O)(=O)c1ccc(NC(=O)CNC(=O)c2ccccc2SSc2ccccc2C(=O)NCC(=O)Nc2ccc(S(N)(=O)=O)cc2)cc1` [Compound 25 D, N,N′-(2,2′-dithiodibenzoyl)-bis-4-(glycinamido)benzenesulfonamide], for which the “zinc finger reactivity / zinc ejection rate” value in data set [1] is given as 7.9 RFU/min. Moreover, in the data set with HIV-1RF (Table 2, read-out: EC50), the EC50 came to 1.6 µM. Moreover, the IC50 in the data set with CEM-SS cells (Table 2, 50% cytotoxicity, read-out: IC50) amounted to 17.6 µM.

With `Nc1ccc(S(=O)(=O)c2ccc(NC(=O)c3ccccc3SSc3ccccc3C(=O)Nc3ccc(S(=O)(=O)c4ccc(N)cc4)cc3)cc2)cc1` [Compound 26 D], the “zinc finger reactivity / zinc ejection rate” value in data set [1] was 3.3 RFU/min. The “Zinc Finger Reactivity RFU/min” value in data set [1] (setting [2]) was 3.3 RFU/min. Also, the EC50 with HIV-1RF (Table 3, read-out: EC50) was 4.3 µM; with HIV-1RF (setting [3]) it was 4.3 µM. In addition, in the data set on CEM-SS cells (setting [4]), the IC50 was less than 316 µM.

Take `CC(=O)Nc1ccc(S(=O)(=O)c2ccc(NC(=O)c3ccccc3SSc3ccccc3C(=O)Nc3ccc(S(=O)(=O)c4ccc(NC(C)=O)cc4)cc3)cc2)cc1` [Compound 27 D]: the “zinc finger reactivity / zinc ejection rate” value in data set [1] was 5.9 RFU/min. Moreover, the “Zinc Finger Reactivity RFU/min” value in data set [1] (setting [2]) stood at 5.9 RFU/min. In addition, the EC50 was determined as 1.5 µM in the data set on HIV-1RF (Table 3, read-out: EC50) and 1.5 µM in the data set on HIV-1RF (setting [3]). In addition, in the data set with CEM-SS cells (read-out: toxicity / IC50), the IC50 amounted to 160 µM.

For `CC(=O)Nc1ccc(S(=O)(=O)Nc2ccc(S(=O)(=O)c3ccc(-n4sc5ccccc5c4=O)cc3)cc2)cc1` [Compound 28 BITA], in data set [1] (setting [2]), the “Zinc Finger Reactivity RFU/min” value stood at 7.9 RFU/min. Further, in the data set with HIV-1RF (Table 3, read-out: EC50), the EC50 is 9.6 µM. The IC50 in the data set on CEM-SS cells (setting [4]) came out at 188 µM.

`CC(=O)Nc1ccc(S(=O)(=O)Nc2ccc(S(=O)(=O)c3ccc(NC(=O)c4ccccc4SSc4ccccc4C(=O)Nc4ccc(S(=O)(=O)c5ccc(NS(=O)(=O)c6ccc(NC(C)=O)cc6)cc5)cc4)cc3)cc2)cc1` [Compound 28 D]: the “Zinc Finger Reactivity RFU/min” value in data set [1] (setting [2]) was 5.9 RFU/min. In the data set with HIV-1RF (Table 3, read-out: EC50), the EC50 was found to be 1 µM. Also, in the data set with CEM-SS cells (setting [4]), the IC50 amounted to 12.7 µM.

Regarding `O=c1c2ccccc2sn1-c1ccc(S(=O)(=O)c2ccc([N+](=O)[O-])cc2)cc1` [Compound 31 BITA], in data set [1] (setting [2]), the “Zinc Finger Reactivity RFU/min” value is recorded as 4.1 RFU/min. Moreover, the “antiviral activity (in words)” value in the data set on HIV-1RF was “without antiviral activity”. Further, in the data set on CEM-SS cells (setting [4]), the IC50 is more than 316 µM.

Regarding `O=C(Nc1ccc(S(=O)(=O)c2ccc([N+](=O)[O-])cc2)cc1)c1ccccc1SSc1ccccc1C(=O)Nc1ccc(S(=O)(=O)c2ccc([N+](=O)[O-])cc2)cc1` [Compound 31 D], the “Zinc Finger Reactivity RFU/min” value in data set [1] (setting [2]) is given as 2.9 RFU/min. In addition, the “EC50 increase vs compound 26” value with HIV-1RF came to 2.6 fold. In the data set with HIV-1RF (setting [3]), the EC50 stood at 12.2 µM. The IC50 in the data set on CEM-SS cells (setting [4]) was more than 316 µM. Besides, the “cellular toxicity (in words)” value in the data set on CEM-SS cells is listed as “non-toxic”; in the data set with CEM-SS cells (listed as 31), “no toxicity”.

`O=C(Nc1ccc(S(=O)(=O)c2ccc(NC(=O)c3ccccc3SSc3ccccc3C(=O)Nc3ccc(S(=O)(=O)c4ccc(NC(=O)c5ccc([N+](=O)[O-])cc5)cc4)cc3)cc2)cc1)c1ccc([N+](=O)[O-])cc1` [Compound 32 D]: the “Zinc Finger Reactivity RFU/min” value in data set [1] (setting [2]) is reported as 2.9 RFU/min. For the same molecule, the EC50 with HIV-1RF (Table 3, read-out: EC50) stood at 78 µM. Further, in the data set on CEM-SS cells (setting [4]), the IC50 was more than 316 µM.

Consider `O=c1c2ccccc2sn1-c1ccc(S(=O)(=O)c2ccc(NS(=O)(=O)Cc3ccccc3[N+](=O)[O-])cc2)cc1` [Compound 34 BITA], for which the “Zinc Finger Reactivity RFU/min” value in data set [1] (setting [2]) was 2 RFU/min. In addition, in the data set with HIV-1RF, the “antiviral activity (in words)” value was “significant antiviral activity”. For the same molecule, the EC50 in the data set on HIV-1RF (Table 3, read-out: EC50) came to 3.2 µM. In addition, in the data set on CEM-SS cells (setting [4]), the IC50 turned out to be 59.5 µM.

For the molecule `O=C(CCCCBr)Sc1ccccc1C(=O)Nc1ccc(S(=O)(=O)c2ccc(NS(=O)(=O)Cc3ccccc3[N+](=O)[O-])cc2)cc1` [Compound 49], the “Zinc Finger Reactivity RFU/min” value in data set [1] (Table 6, average decrease in relative fluorescence units over 30 min) is 1.9 RFU/min. Also, the IC50 in the data set on CEM-SS cells (Table 6, 50% cytotoxicity, read-out: IC50) is more than 316 µM.
